Source: PMC4195764, “Molecular mechanism of ligand recognition by membrane transport protein, Mhp1” (The EMBO Journal, 2014)

Key:
Mhp1 [1] = target: T1, Mhp1 (Microbacterium maritypicum, UniProt D6R8X8); assay: inhibition of […]-L-IMH uptake into E. coli cells expressing Mhp1; format: cell-based; design: gene hyuP; full-length membrane protein expressed in E. coli BL21(DE3) from pSHP11; conditions: read-out: Apparent IC5_0
T1 sequence (D6R8X8 1-489): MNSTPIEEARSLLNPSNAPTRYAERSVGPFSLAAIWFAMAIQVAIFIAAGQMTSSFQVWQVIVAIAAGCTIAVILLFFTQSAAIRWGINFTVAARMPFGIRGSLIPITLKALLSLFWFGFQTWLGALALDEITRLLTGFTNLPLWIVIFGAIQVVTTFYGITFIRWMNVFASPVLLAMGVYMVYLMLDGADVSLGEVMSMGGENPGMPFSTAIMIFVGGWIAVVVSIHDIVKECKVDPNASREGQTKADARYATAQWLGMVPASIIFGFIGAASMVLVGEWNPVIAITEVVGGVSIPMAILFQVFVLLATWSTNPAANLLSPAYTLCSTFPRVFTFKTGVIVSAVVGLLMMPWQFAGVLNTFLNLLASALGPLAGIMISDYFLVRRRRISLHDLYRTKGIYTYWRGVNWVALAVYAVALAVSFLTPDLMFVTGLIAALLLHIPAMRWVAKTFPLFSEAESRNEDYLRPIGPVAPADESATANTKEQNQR

Mhp1 [2] = target: T2, Mhp1 (Microbacterium maritypicum, UniProt D6R8X8, L363A); assay: uptake of […]-L-NMH into E. coli cells expressing mutant; format: cell-based; conditions: 50 μM labelled compound, 150 mM NaCl, pH 6.6, 15 s; not transported by wild type
T2 construct: gene hyuP; full-length membrane protein expressed in E. coli BL21(DE3) from pSHP11; GFP-fusion purified for crystallography (details in supplement)

Mhp1 [3] = target: T1, Mhp1; assay: stopped-flow tryptophan spectrophotofluorimetry; format: binding; design: gene hyuP; full-length membrane protein expressed in E. coli BL21(DE3) from pSHP11; GFP-fusion purified for crystallography (details in supplement); conditions: read-out: Apparent Kd
Excerpt: stopped-flow tryptophan spectrophotofluorimetry on Mhp1

T2 sequence (D6R8X8 whole entry L363A, the tested form may be a part): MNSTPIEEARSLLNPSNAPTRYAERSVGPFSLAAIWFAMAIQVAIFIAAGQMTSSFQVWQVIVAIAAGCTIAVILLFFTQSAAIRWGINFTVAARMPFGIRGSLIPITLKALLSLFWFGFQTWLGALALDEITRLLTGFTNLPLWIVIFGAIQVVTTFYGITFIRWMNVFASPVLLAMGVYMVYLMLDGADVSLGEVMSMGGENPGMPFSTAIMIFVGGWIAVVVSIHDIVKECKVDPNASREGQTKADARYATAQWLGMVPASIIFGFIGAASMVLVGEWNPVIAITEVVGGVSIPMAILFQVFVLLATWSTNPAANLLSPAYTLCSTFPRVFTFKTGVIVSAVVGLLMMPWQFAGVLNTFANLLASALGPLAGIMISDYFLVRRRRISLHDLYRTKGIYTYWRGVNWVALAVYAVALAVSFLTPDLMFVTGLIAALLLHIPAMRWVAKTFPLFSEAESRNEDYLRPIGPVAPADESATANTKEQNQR

SMILES | IC50 (Mhp1 [1]) [µM] | uptake of 14C-L-NMH into E. coli cells expressing mutant (Mhp1 [2]) | Kd (Mhp1 [3]) [µM]
O=C1NC(=O)[C@H](Cc2ccc3ccccc3c2)N1 [L-NMH, (5S)-5-(naphthalen-2-ylmethyl)imidazolidine-2,4-dione] | 14.9 ± 1.1 | when Leu363 was mutated to an alanine, uptake was restored | 3.6 ± 0.8
O=C1NC(=O)[C@@H](Cc2ccc3ccccc3c2)N1 [D-NMH] | 17.1 ± 1.1 |  | 1.8 ± 0.3
O=C1NC(=O)[C@@H](Cc2ccccc2)N1 [D-BH] |  |  | 130 ± 10
O=C1NC(=O)C(=Cc2cccc(Br)c2)N1 (stereo in doubt) [BVH, (5E)-5-[(3-bromophenyl)methylidene] imidazolidine-2,4-dione] | 38.8 ± 1.1 |  | 2 ± 0.2
O=C1NC(=O)[C@H](Cc2c[nH]c3ccccc23)N1 [L-IMH, (5S)-5-(1H-indol-3-ylmethyl)imidazolidine-2,4-dione] | 119.2 ± 1.1 |  | 19 ± 2
O=C1NC(=O)[C@@H](Cc2c[nH]c3ccccc23)N1 [D-IMH] |  |  | 20.6 ± 3.8
O=C1NC(=O)[C@H](Cc2ccccc2)N1 [L-BH, (5S)-5-benzylimidazolidine-2,4-dione] | 945 ± 1.1 |  | 36 ± 1.4
